Assay results: patent US6566081B1, “Methods of identifying a compound which modulates the non-transcriptional non-map-kinase induced effects of steroid hormones” (The Brigham and Women's Hospital, Inc., priority 1999, dated 2003)

How the values were obtained:
eNOS [1] = target: T1, eNOS (Mus musculus, UniProt P70313); assay: Cremaster eNOS activity in mice; assay type: in vivo; settings: mice with 1.5 mg slow-release E2 tablets s.c.
T1 construct: from tissue; host or cells: cremaster muscle of male C57BL/6 mice
T1 sequence (P70313 2-1202): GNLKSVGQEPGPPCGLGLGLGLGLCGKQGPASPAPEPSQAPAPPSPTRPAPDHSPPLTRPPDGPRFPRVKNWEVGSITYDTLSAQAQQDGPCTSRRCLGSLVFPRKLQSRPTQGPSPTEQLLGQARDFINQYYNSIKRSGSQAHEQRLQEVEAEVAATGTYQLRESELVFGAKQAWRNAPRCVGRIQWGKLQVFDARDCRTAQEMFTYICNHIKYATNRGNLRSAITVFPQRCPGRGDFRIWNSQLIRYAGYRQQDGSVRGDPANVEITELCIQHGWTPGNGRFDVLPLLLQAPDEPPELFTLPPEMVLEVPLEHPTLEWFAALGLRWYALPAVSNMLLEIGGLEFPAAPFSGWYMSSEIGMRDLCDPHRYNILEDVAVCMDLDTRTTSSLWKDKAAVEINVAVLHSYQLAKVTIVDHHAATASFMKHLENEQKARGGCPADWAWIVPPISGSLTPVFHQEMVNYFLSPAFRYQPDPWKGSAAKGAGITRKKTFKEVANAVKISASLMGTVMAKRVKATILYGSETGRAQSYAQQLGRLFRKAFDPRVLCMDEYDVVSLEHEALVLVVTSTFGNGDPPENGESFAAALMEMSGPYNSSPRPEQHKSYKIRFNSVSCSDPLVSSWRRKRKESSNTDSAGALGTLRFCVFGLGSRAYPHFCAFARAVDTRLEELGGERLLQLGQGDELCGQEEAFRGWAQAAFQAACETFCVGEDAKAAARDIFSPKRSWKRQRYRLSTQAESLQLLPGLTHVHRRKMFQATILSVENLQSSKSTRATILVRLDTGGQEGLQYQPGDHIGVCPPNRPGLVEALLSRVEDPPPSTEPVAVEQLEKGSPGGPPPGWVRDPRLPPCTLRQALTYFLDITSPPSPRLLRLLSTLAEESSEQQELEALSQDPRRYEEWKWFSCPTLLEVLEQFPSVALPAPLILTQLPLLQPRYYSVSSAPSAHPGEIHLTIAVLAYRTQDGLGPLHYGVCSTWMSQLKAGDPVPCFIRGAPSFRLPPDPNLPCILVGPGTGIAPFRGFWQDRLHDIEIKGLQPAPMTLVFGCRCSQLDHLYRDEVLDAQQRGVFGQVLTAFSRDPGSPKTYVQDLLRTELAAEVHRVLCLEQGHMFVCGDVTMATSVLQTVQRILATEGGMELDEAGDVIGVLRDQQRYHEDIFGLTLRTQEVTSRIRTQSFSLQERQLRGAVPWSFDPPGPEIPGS
Method: (§1) Mice were anesthetized and the cremaster muscle was studied under intravital microscopy^28. Ischemia was induced by applying pressure to supplying arteries just sufficient to stop blood flow for 30 min. In some experiments, wortmannin (100 nM) or L-NAME (0.1 mM) was applied to the cremaster muscle during the ischemic period. The pressure was released for reperfusion, and the same vessels were recorded in each animal before and after I/R. The rolling velocities of 25 leukocytes were measured in each venule; sorted and averaged for each rank to construct cumulative histograms. The velocities of 3,750 leukocytes were measured in 150 venules before and after I/R. The number of firmly adherent leukocytes was measured before and after I/R in the same 200 μm long segments of venules. The following number of venules were studies for leukocyte adhesion: Untreated, 15 venules; E2-treated, 20 venules; E2-treated with wortmannin, 25 venules; E2-treated with L-NAME, 15 venules. Cremaster eNOS activity was measured in 3 untreated, 4 E2-treated, 5 E2-treated with wortmannin, and 4 E2-treated with L-NAME mice.

[2] = test system: mouse cremaster muscle venules; assay: Model of vascular injury: ischemia and reperfusion in the mouse cremaster muscle (leukocyte rolling and adhesion); assay type: in vivo; settings: mice with 1.5 mg slow-release E2 tablets s.c.
Method: as §1, with “venules.” for “venules. The following number of venules were studies for leukocyte adhesion: Untreated, 15 venules; E2-treated, 20 venules; E2-treated with wortmannin, 25 venules; E2-treated with L-NAME, 15 venules. Cremaster eNOS activity was measured in 3 untreated, 4 E2-treated, 5 E2-treated with wortmannin, and 4 E2-treated with L-NAME mice.”

eNOS [3] = assay: E2-stimulated eNOS activity in transfected murine fibroblasts; settings: murine fibroblasts transfected with ERα and eNOS cDNAs
[4] = Serum E2 level in mice implanted with E2 tablets; assay type: in vivo, mouse; settings: mice implanted s.c. with 1.5 mg slow-release E2 tablets, 3-5 days

17β-estradiol [E2]
increase in eNOS activity in cremaster muscle (eNOS [1]): 3.2 fold | changes in leukocyte accumulation and rolling velocity following I/R [2]: prevented | increase in eNOS activity, wild-type fibroblasts (eNOS [3]): 8 fold | serum E2 level [4]: 760 ± 30 pg/mL
